Measured values published in US12258308B2, “Benzene derivative” (ONO PHARMACEUTICAL CO., LTD., priority 2018, dated 2025).

System: rat Schwann cells
Assay: In vitro test using Schwann cells (Schwann cell differentiation promotion, MAG immunostaining)
Type: cell-based
Details: 3 days, MAG-positive area/cell nuclei; for activity at 0.3 µM / activity at 3 µM: Rattus norvegicus, 72 h; for activity at 0.3 µM: read-out: Schwann cell differentiation promotion rate (% of vehicle) 0.3 μmol/L; for activity at 3 µM: read-out: Schwann cell differentiation promotion rate (% of vehicle) 3 μmol/L
Experimental: Biological Experiment Example 1: In Vitro Test Using Schwann Cells
• (1) Preparation of rat Schwann cells
A dorsal root ganglion (abbreviated as “DRG”, hereinafter) was excised from a newborn rat aged 0 to 2 days in a clean bench and was collected in DMEM. After the collection, the tube was centrifuged at 400 g, at room temperature for 3 minutes, then a supernatant was discarded, and a 0.25% collagenase solution was added. There resultant solution was incubated at 37° C. for 30 minutes to disperse and separate the excised DRG, and was then centrifuged at room temperature at 400 g for 3 minutes, then a supernatant was discarded, and then 0.25% Trypsin/EDTA and DNaseI were added. After the incubation at 37° C. for 30 minutes, trypsin was inactivated with DMEM supplemented with 10% FBS (10% FBS-DMEM), and centrifugation was carried out at room temperature at 400 g for 3 minutes. A supernatant was discarded, then 10% FBS-DMEM was added to the residue to prepare a cell suspension, and then the cell suspension was allowed to pass through a filter (diameter: 70 μm). The number of cells in the cell suspension which passed through the filter was counted to prepare a solution having a concentration of 2.0×10^5 cells/mL, and the suspension was seeded in a poly-D-lysine-coated 96-well black-clear plate in an amount of 100 μL/well and was then statically cultured in a CO2 incubator under the conditions including 5% of CO2, 95% of air and 37° C.
The culture medium in the cell culture plate was removed by suction using an aspirator, and then DMEM supplemented with 1% dialyzed FBS and 100 μmol/L dibutyryl cyclic AMP was added. Subsequently, a solution of a compound of the present invention dissolved in DMSO was added, and the resultant solution was statically cultured in a C02 incubator under the conditions including 5% of C02, 95% of air and a temperature of 37° C. The final concentration of the compound of the present invention in each well in the cell culture plate was adjusted to 0.1, 0.3, 1 or 3 μmol/L.
Three days after the treatment with the compound, formaldehyde was added to each well in the cell culture plate, and the cell culture plate was allowed to stand at room temperature for 30 minutes or longer. A supernatant was discarded, and then a 0.3% tritonX-100 solution was added to each well, and then the cell culture plate was allowed to stand at room temperature for 20 minutes or longer. A supernatant was discarded, then a 5-μg/mL anti-myeline-associated glycoprotein antibody (anti-MAG antibody) solution was added to each well, and then the cell culture plate was allowed to stand at room temperature for 60 minutes or longer or at 4° C. (acceptable range: 1 to 9° C.) overnight. Each well was washed with a 0.1% tritonX-100 solution three times, then a 10-μg/mL Alexa fluor 488 anti-mouse IgG solution was added to each well, and then the cell culture plate was allowed to stand at room temperature for 60 or longer or at 4° C. overnight. Each well was washed with a 0.1% tritonX-100 solution four times, and then a 1-μg/mL Hoechst33342 solution was added to each well to stain nuclei.
The Mag-positive area and the number of cell nuclei in a fluorescent image were calculated. With respect to each of the MAG-positive area and the number of cell nuclei, the sum total of values obtained in 5 viewing fields/well was determined. The values were employed as a value for the MAG-positive area and a value for the number of cell nuclei, respectively, in each well. Subsequently, a value determined by dividing the value for the MAG-positive area in each well by the value for the number of cell nuclei in the well (i.e., MAG/cell nuclei numerical value) was calculated. The Schwann cell differentiation promotion rate was determined for each of the vehicles in accordance with the following formula. […]

Q: Which results are given for CC(C)OC(=O)CCc1ccccc1OCC[C@@H](O)/C=C/c1cccc(NS(=O)(=O)c2ccccc2)c1 [Example 10, Propan-2-yl 3-[2-[(E,3R)-5-[3-(benzenesulfonamido)phenyl]-3-hydroxypent-4-enoxy]phenyl]propanoate]?
A: activity at 0.3 µM (compound 0.3 μmol/L): 86.2%; activity at 3 µM (compound 3 μmol/L): 593%

Q: O=C(O)CCc1ccccc1OCC[C@@H](O)/C=C/c1ccccc1NC(=O)c1ccccc1 [Example 12(5), 3-[2-[(E,3R)-5-(2-Benzamidophenyl)-3-hydroxypent-4-enoxy]phenyl]propanoic acid] was tested. Which activity at 0.3 µM (compound 0.3 μmol/L) did it give?
A: 147%

Q: And the activity at 3 µM (compound 3 μmol/L)?
A: 234%

Q: What does the source list for O=C(O)CCc1ccccc1OCC[C@@H](O)/C=C/c1cccc(NCc2ccccc2)c1 [Example 12(6), 3-[2-[(E,3R)-5-[3-(Benzylamino)phenyl]-3-hydroxypent-4-enoxy]phenyl]propanoic acid]?
A: activity at 0.3 µM (compound 0.3 μmol/L): 144%; activity at 3 µM (compound 3 μmol/L): 435%

Q: Which activity at 0.3 µM (compound 0.3 μmol/L) does the source give for O=C(O)CCc1ccccc1OCC[C@@H](O)/C=C/c1cccc(S(=O)(=O)Nc2ccccc2)c1 [Example 12(7), 3-[2-[(E,3R)-3-Hydroxy-5-[3-(phenylsulfamoyl)phenyl]pent-4-enoxy]phenyl]propanoic acid] here?
A: 111%

Q: And the activity at 3 µM (compound 3 μmol/L)?
A: 379%

Q: Which activity at 0.3 µM (compound 0.3 μmol/L) does the source give for O=C(O)CCc1ccccc1OCC[C@@H](O)/C=C/c1cccc(C(=O)Nc2ccccc2)c1 [Example 12(8), 3-[2-[(E,3R)-3-Hydroxy-5-[3-(phenylcarbamoyl)phenyl]pent-4-enoxy]phenyl]propanoic acid] here?
A: 158%

Q: And the activity at 3 µM (compound 3 μmol/L)?
A: 459%

Q: What does the source list for O=C(O)CCc1ccccc1OCC[C@@H](O)/C=C/c1ccccc1CNS(=O)(=O)c1ccccc1 [Example 12(11), 3-[2-[(E,3R)-5-[2-(Benzenesulfonamidomethyl)phenyl]-3-hydroxypent-4-enoxy]phenyl]propanoic acid]?
A: activity at 0.3 µM (compound 0.3 μmol/L): 203%; activity at 3 µM (compound 3 μmol/L): 505%

Q: For O=C(O)CCc1ccccc1OCC[C@@H](O)/C=C/c1ccc2c(c1)CN(S(=O)(=O)c1ccccc1)CC2 [Example 13(19), 3-[2-[(E,3R)-5-[2-(Benzenesulfonyl)-3,4-dihydro-1H-isoquinolin-7-yl]-3-hydroxypent-4-enoxy]phenyl]propanoic Acid], which activity at 0.3 µM (compound 0.3 μmol/L) is on record?
A: 142%

Q: What about the activity at 3 µM (compound 3 μmol/L) of the same molecule?
A: 598%

Q: Which results are given for O=C(O)CCc1ccccc1OCC[C@@H](O)/C=C/c1cccc(C[C@H](O)c2ccccc2)c1 [Example 26, 3-[2-[(E,3R)-3-Hydroxy-5-[3-[(2S)-2-hydroxy-2-phenylethyl]phenyl]pent-4-enoxy]phenyl]propanoic acid]?
A: activity at 0.3 µM (compound 0.3 μmol/L): 196%; activity at 3 µM (compound 3 μmol/L): 439%

Q: How did the activity at 0.3 µM (compound 0.3 μmol/L) turn out when O=C(O)CCc1ccccc1OCC[C@@H](O)/C=C/c1cccc(C(O)CCc2ccccc2)c1 (stereo partly drawn) [Example 28, 3-[2-[(E,3R)-3-Hydroxy-5-[3-(1-hydroxy-3-phenylpropyl)phenyl]pent-4-enoxy]phenyl]propanoic acid] was run?
A: 188%

Q: What about the activity at 3 µM (compound 3 μmol/L) of the same molecule?
A: 628%

Q: How did the activity at 0.3 µM (compound 0.3 μmol/L) turn out when O=C(CCc1ccccc1OCC[C@@H](O)/C=C/c1cccc(NS(=O)(=O)c2ccccc2)c1)N1CCOCC1 [Example 32(1), N-[3-[(E,3R)-3-Hydroxy-5-[2-(3-morpholin-4-yl-3-oxopropyl)phenoxy]pent-1-enyl]phenyl]benzenesulfonamide] was run?
A: 408%

Q: For CN(C)C(=O)CCc1ccccc1OCC[C@@H](O)/C=C/c1cccc(NS(=O)(=O)c2ccccc2)c1 [Example 32(2), 3-[2-[(E,3R)-5-[3-(Benzenesulfonamido)phenyl]-3-hydroxypent-4-enoxy]phenyl]-N,N-dimethylpropanamide], which activity at 0.3 µM (compound 0.3 μmol/L) is on record?
A: 340%

Q: And the activity at 3 µM (compound 3 μmol/L)?
A: 788%

Q: For O=C(O)CCc1ccccc1OCC[C@@H](O)C1CC1c1cccc(NS(=O)(=O)c2ccccc2)c1 (stereo partly drawn) [Example 39, 3-[2-[(3R)-3-[2-[3-(Benzenesulfonamido)phenyl]cyclopropyl]-3-hydroxypropoxy]phenyl]propanoic acid], which activity at 0.3 µM (compound 0.3 μmol/L) is on record?
A: 211%

Q: What about the activity at 3 µM (compound 3 μmol/L) of the same molecule?
A: 323%

Q: O=C(O)CCc1ccccc1OCC[C@@H](O)/C=C/c1cccc(NS(=O)(=O)Cc2ccccc2)c1 [Example 74(15), 3-[2-[(E,3R)-5-[3-(Benzilsulfonylamino)phenyl]-3-hydroxypent-4-enoxy]phenyl]propanoic acid] was tested. Which “Schwann cell differentiation promotion rate (% of vehicle) 0.3 μmol/L” value (compound 0.3 μmol/L) did it give?
A: 204.5 % of vehicle

Q: What about the “Schwann cell differentiation promotion rate (% of vehicle) 3 μmol/L” value (compound 3 μmol/L) of the same molecule?
A: 428.1 % of vehicle

Q: What does the source list for O=C(O)CCc1ccccc1OCC[C@@H](O)/C=C/c1cccc(NS(=O)(=O)c2ccccn2)c1 [Example 74(16), 3-[2-[(E,3R)-3-Hydroxy-5-[3-(pyridin-2-ylsulfonylamino)phenyl]pent-4-enoxy]phenyl]propanoic acid]?
A: activity at 0.3 µM (compound 0.3 μmol/L): 212%; activity at 3 µM (compound 3 μmol/L): 300%

Q: Which activity at 0.3 µM (compound 0.3 μmol/L) does the source give for O=C(O)CCc1ccccc1OCC[C@@H](O)/C=C/c1cccc(NS(=O)(=O)c2coc3ccccc23)c1 [Example 74(17), 3-[2-[(E,3R)-5-[3-(1-Benzofuran-3-ylsulfonylamino)phenyl]-3-hydroxypent-4-enoxy]phenyl]propanoic acid] here?
A: 85.6%

Q: What about the activity at 3 µM (compound 3 μmol/L) of the same molecule?
A: 252%

Q: For O=C(O)CCc1ccccc1OCC[C@@H](O)/C=C/c1cccc(NS(=O)(=O)c2ccsc2)c1 [Example 74(19), 3-[2-[(E,3R)-3-Hydroxy-5-[3-(thiophen-3-ylsulfonylamino)phenyl]pent-4-enoxy]phenyl]propanoic Acid], which activity at 0.3 µM (compound 0.3 μmol/L) is on record?
A: 187%

Q: What about the activity at 3 µM (compound 3 μmol/L) of the same molecule?
A: 270%

Q: What does the source list for O=C(O)CCc1ccccc1OCC[C@@H](O)CCc1cccc(NS(=O)(=O)C2CCCC2)c1 [Example 75, 3-[2-[(3S)-5-[3-(Cyclopentylsulfonylamino)phenyl]-3-hydroxypentoxy]phenyl]propanoic Acid]?
A: activity at 0.3 µM (compound 0.3 μmol/L): 181%; activity at 3 µM (compound 3 μmol/L): 244%

Q: Which activity at 0.3 µM (compound 0.3 μmol/L) does the source give for COC(=O)CCc1ccccc1OCCC(=O)/C=C/c1cccc(NS(=O)(=O)c2ccccc2)c1 [Example 77, Methyl 3-[2-[(E)-5-[3-(benzenesulfonamido)phenyl]-3-oxopent-4-enoxy]phenyl]propanoate] here?
A: 115%

Q: And the activity at 3 µM (compound 3 μmol/L)?
A: 256%

Q: O=C(O)CCc1ccccc1OCCC/C=C/c1nc(C(O)Cc2ccccc2)cs1 (centres unmarked) [Example 93, 3-[2-[(E)-5-[4-(1-Hydroxy-2-phenylethyl)-1,3-thiazol-2-yl]pent-4-enoxy]phenyl]propanoic acid] was tested. Which activity at 0.3 µM (compound 0.3 μmol/L) did it give?
A: 108%

Q: What about the activity at 3 µM (compound 3 μmol/L) of the same molecule?
A: 374%

Q: With O=C(O)CCc1ccccc1OCCCC(=O)CCc1cccc(NS(=O)(=O)c2ccccc2)c1 [Example 103, 3-[2-[6-[3-(Benzenesulfonamido)phenyl]-4-oxohexoxy]phenyl]propanoic acid] as the molecule, how does the activity at 0.3 µM (compound 0.3 μmol/L) read?
A: 199%

Q: And the activity at 3 µM (compound 3 μmol/L)?
A: 354%

Q: Which results are given for O=C(O)CCc1ccccc1CCCC(=O)CCc1cccc(NS(=O)(=O)c2ccccc2)c1 [Example 112, 3-[2-[6-[3-(Benzenesulfonamido)phenyl]-4-oxohexyl]phenyl]propanoic acid]?
A: activity at 0.3 µM (compound 0.3 μmol/L): 255%; activity at 3 µM (compound 3 μmol/L): 504%

Q: Which activity at 0.3 µM (compound 0.3 μmol/L) does the source give for O=C(O)CCc1ccccc1OCCC(F)(F)CCc1cccc(NS(=O)(=O)c2ccccc2)c1 [Example 139, 3-[2-[5-[3-(Benzenesulfonamido)phenyl]-3,3-difluoropentoxy]phenyl]propanoic acid] here?
A: 209%

Q: What about the activity at 3 µM (compound 3 μmol/L) of the same molecule?
A: 541%

Q: What does the source list for O=C(O)CCc1ccccc1OCCOCCc1cccc(NS(=O)(=O)c2ccccc2)c1 [Example 149, 3-[2-[2-[2-[3-(Benzenesulfonamido)phenyl]ethoxy]ethoxy]phenyl]propanoic Acid]?
A: activity at 0.3 µM (compound 0.3 μmol/L): 160%; activity at 3 µM (compound 3 μmol/L): 645%

Q: Which activity at 0.3 µM (compound 0.3 μmol/L) does the source give for O=C(O)CCc1ccccc1OCCCCCC1CCC(NS(=O)(=O)c2ccccc2)CC1 (centres unmarked) [Example 166, 3-[2-[5-[4-(Benzenesulfonamido)cyclohexyl]pentoxy]phenyl]propanoic acid] here?
A: 104%

Q: What about the activity at 3 µM (compound 3 μmol/L) of the same molecule?
A: 465%
